Measured values taken from patent publication US11446393B2, “Non-viral gene delivery agent comprising lipopeptide (LP) compounds” (MONASH UNIVERSITY, priority 2017, dated 2022).
Peptide text beside a SMILES is read from it. * marks the point of attachment. Stearoyl = CCCCCCCCCCCCCCCCCC(=O)*

Test system: plasmid DNA
Assay: Dye exclusion assay (SYBR Gold) of DNA condensation by lipopeptide
Assay type: physicochemical
Details: charge ratio 2.5:1; n=3, p<0.05; data not shown
Protocol: To determine the charge ratio at which the LP effectively condenses the DNA, a dye exclusion assay was carried out. In a 96-well black-bottomed plate, plasmid DNA (20 μg/mL) was prepared in 12 mM Tris-HCl (pH 7.4) buffer. To each well containing DNA, 0.05 μL of 10,000× concentrated stock of intercalating SYBR® Gold (Thermo Fisher Scientific) was added and the plate was incubated at room temperature for 15 minutes. The LP was then added to the wells at a series of charge ratios from 0.5:1 to 5:1. A well containing 20 μg/mL of naked DNA and SYBR® Gold was used as a 100% fluorescence intensity standard (ie no LP added). A blank well containing only the SYBR® Gold in buffer was used to subtract from the fluorescent readings of each sample. The plate was incubated at room temperature for 30 minutes for particle formation. The fluorescence (excitation 492 nm, emission 540 nm) of each sample was measured using a Wallac Envision 2102 Multilabel Reader (PerkinElmer, Waltham, Mass., United States of America).

CCCCCCCCCCCCCCCCCC(=O)NC(CS)C(=O)NC(Cc1cnc[nH]1)C(=O)NC(Cc1cnc[nH]1)C(=O)NC(CCCCN)C(=O)NC(CCCCN)C(=O)NC(CCCCN)C(=O)O (stereo not drawn) [stearoyl-CH2K3, stearoyl-Cys-His-His-Lys-Lys-Lys] (Stearoyl-CHHKKK-OH; configuration not given here)
Fluorescence of LP/DNA particles after addition of dithiothreitol (DTT) to the LP before complexation: significantly increased the degree of fluorescence
